This is an account of results in US5128346A, “Derivatives of D-glutamic acid and D-aspartic acid” (priority 1990, dated 1992).

For one assay, the system named is guinea pig acini. Nature of the assay: Inhibition of CCK8-stimulated amylase release from acini. It counts as cell-based. To be noted: Cavia porcellus, 0.5 h, CCK8 3×10^-10 M, 37° C., 30 min. The protocol: Protocol for Amylase This assay was performed using the modified protocol of Lin et al., J. Pharmacol. Exp. Ther. 236, 734, 1986. 1. Guinea Pig Acini Preparation Guinea pig acini were prepared by the method of Bruzzone et al. (Biochem. J. 226, 621-624, 1985) as follows. Pancreas was dissected out and connective tissues and blood vessels were removed. The pancreas was cut into small pieces (2mm) by a scissor and placed in a 15 mL conical plastic tube containing 2.5 mL of Krebs Ringer HEPES (KRH) buffer plus 400 units per mL of collagenase. The composition of the KRH buffer was: HEPES, 12.5 mM: NaCl, 118 mM; KCI, 4.8 mM; CaCl2, 1 mM; […]; MgSO4, 1.2 mM; NaHCO3, 5 mM; glucose, 10 mM, pH 7.4. The buffer was supplemented with MEM vitamins, 1% MEM amino acids and 0.001% aprotinin. The tube was shaken by hand until the suspension appeared homogeneous, usually 5 to 6 min. 5 mL of the KRH, without collagenase and with 0.1% BSA, were added and the tube was centrifuged at 50×g for 35 sec. The supernatant was discarded and 6 mL of the KRH were added to the cell pellet. […] This wash procedure was repeated once. The cell pellet from the last centrifugation step was then resuspended in 15 mL of KRH containing 0.1% BSA. The contents were filtered through a dual nylon mesh, size 275 and 75 micrometers. The filtrate, containing the acini, were centrifuged at 50×for 3 min. The acini were then resuspended in 5 mL of KRH-BSA buffer for 30 min at 37° C., under 100% O2, with a change of fresh buffer at 15 min. 2. Amylase Assay After the 30 min incubation time, the acini were resuspended in 100 volumes of KRH-BSA buffer, containing 3 microM phosphoramidon and 100 microM bestatin. […] The final assay volume was 500 microliters. Tubes were vortexed and placed in a 37° C. water bath, under 100% O2, for 30 min. Afterward, tubes were centrifuged at 10,000 g for 1 min. […] The results of this assay are […]

In another assay the target is T1, Type-A CCK receptor (Cavia porcellus, UniProt Q63931).
T1 construct: cortex and pancreas were removed and rinsed with ice cold saline; from tissue; host or cells: guinea pig pancreas, membranes
T1 sequence (Q63931 1-430): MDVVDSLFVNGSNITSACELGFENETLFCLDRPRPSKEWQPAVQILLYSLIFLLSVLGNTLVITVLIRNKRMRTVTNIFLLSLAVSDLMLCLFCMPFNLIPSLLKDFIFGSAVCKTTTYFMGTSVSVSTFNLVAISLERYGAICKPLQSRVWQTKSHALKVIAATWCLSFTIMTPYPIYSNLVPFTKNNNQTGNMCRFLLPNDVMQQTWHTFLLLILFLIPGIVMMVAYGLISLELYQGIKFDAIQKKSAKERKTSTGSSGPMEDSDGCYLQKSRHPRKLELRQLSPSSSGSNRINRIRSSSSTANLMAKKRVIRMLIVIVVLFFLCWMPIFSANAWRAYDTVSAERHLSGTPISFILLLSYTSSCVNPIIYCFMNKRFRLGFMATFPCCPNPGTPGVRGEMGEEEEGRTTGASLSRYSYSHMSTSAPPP
Nature of the assay: Radioligand binding, [^125 I]-BH-CCK8, Type-A CCK receptor (pancreatic membranes). On the set-up: species or system guinea pig. An excerpt:
(§1) CCK8 [Asp-Tyr(SO3 H)-Met-Gly-Trp-Met-Asp-Phe-NH2 ] was purchased from Beckman Instruments (Palo Alto, Ca/) and Peptide International (Louisville, Ky.). Chymostatin, L-Try-Gly, puromycin, bestatin, EGTA, HEPES and BSA were purchased from Sigma Chemical Co. (St. Louis, Mo.). [^125 I]BH-CCK8 (specific activity, 2200 Ci/mmol) and Aquasol 2 scintillation cocktail were obtained from New England Nuclear (Boston, Ma.). Male guinea pigs, 250 to 325 g, were obtained from Scientific Small Animal Laboratory and Farm (Arlington Heights, Ill.). Collagenase, 300 units per mg, was purchased from Worthington (Frehold, N.J.)
(§2) 1. Guinea Pig Cerebral Cortical and Pancreatic Membrane Preparations
(§3) Cortical and pancreatic membrances were prepared as described (Lin and Miller; J. Pharmacol. Exp. Ther. 232, 775-780, 1985). In brief, cortex and pancreas were removed and rinsed with ice cold saline. Visible fat and connective tissues were removed from the pancreas. Tissues were weighed and homogenized separately in approximately 25 mL of ice-cold 50 mM Tris-HCl buffer, pH 7.4 at 4° C., with a Brinkman Polytron for 30 sec, setting 7. The homogenates were centrifuged for 10 min at 1075×g and pellets were discarded. The supernatants were saved and centrifuged at 38,730×g for 20 min. The resultant pellets were rehomogenized in 25 mL of 50 mM Tris-HCl buffer with a Teflon-glass homogenizer, 5 up and down strokes. The homogenates were centrifuged again at 38,730×g for 20 min. Pellets were then resuspended in 20 mM HEPES, containing 1 mM EGTA., 118 mM NaCl, 5 mM MgCl2, 100 microM bestatin, 3 microM phosphoramidon, pH 7.4 at 22° C., with a Teflon-glass homogenizer, 15 up and down strokes. Resuspension volume for the cortex was 15-18 mL per gm of original wet weight and 60 mL per gm for the pancreas.
(§4) ^125 I]Bolton-Hunter CCK8, and test compounds were diluted with HEPES-EGTA-salt buffer (see above) containing 0.5% bovine serum albumin (BSA). To 1 mL Skatron polystyrene tubes were added 25 microliters of test compounds, 25 miroliters of [^125 I]BH-CCK8, and 200 microliters of membrane suspension. The final BSA concentration was 0.1%. The cortical tissues were incubated at 30° C. for 150 min and pancreatic tissues were incubated at 37° C. for 30 min. Incubations were terminated by filtration using Skatron Cell Harvester and SS32 microfiber filter mats. The specific binding of [^125 I]BH-CCK8, defined as the difference between binding in the absence and presence of 1 microM CCK8, was 85 90% of pancreas. IC50 's were determined from the Hill analysis.

The next assay concerns the target T2, Type-B CCK receptor (Cavia porcellus, UniProt H0VZC5).
T2 construct: cortex and pancreas were removed and rinsed with ice cold saline; from tissue; host or cells: guinea pig cerebral cortex, membranes
T2 sequence (H0VZC5 1-426): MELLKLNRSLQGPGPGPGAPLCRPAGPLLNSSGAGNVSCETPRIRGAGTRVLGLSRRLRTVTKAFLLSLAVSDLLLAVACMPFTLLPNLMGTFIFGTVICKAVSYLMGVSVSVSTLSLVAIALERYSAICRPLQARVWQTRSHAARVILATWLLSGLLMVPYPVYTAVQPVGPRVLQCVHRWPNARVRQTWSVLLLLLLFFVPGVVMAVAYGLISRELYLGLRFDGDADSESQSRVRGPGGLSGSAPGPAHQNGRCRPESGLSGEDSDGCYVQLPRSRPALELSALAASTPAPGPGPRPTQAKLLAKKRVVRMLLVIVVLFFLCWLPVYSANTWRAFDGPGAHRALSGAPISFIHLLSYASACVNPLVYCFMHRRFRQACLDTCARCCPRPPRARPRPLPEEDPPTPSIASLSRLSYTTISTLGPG
Nature of the assay: Radioligand binding, [^125 I]-BH-CCK8, Type-B CCK receptor (cerebral cortical membranes). On the set-up: species or system guinea pig.
Text: as §1, §2, §3
as §4, with “The specific binding of [^125 I]BH-CCK8, defined as the difference between binding in the absence and presence of 1 microM CCK8, was 85 90% of pancreas.” left out

The test system of another assay is CCK8. Nature of the assay: Inhibition of CCK induced gastric emptying (charcoal meal). The note with it: 100 mg/kg p.o., CCK8 80 micrograms/kg s.c. The class given is in vivo. Here is the method:
Inhibition Of CCK Induced Gastric Emptying
Three fasted mice were dosed (p.o.) with the test compound. CCK8 (80 micrograms/kg s.c.) was administered within 60 minutes and charcoal meal (0.1 mL of 10% suspension) was given orally 5 minutes later. The animals were sacrificed within an additional 5 minutes.
Gastric emptying, defined as the presence of charcoal within the intestine beyond the pyloric sphincter, is inhibited by CCK8. Gastric emptying observed in more than 1 or 3 mice (greater than 1) indicates antagonism of CCK8.

Setting [1] is: guinea pig pancreatic membranes, 37° C., 30 min, IC50 from Hill analysis.

Where a name gives a salt, the structure may show the parent alone. Read-outs that look alike come from different tables or passages of the source.

Broadly, the IC50 is the concentration that gives 50% inhibition. High values mean a need for much substance, low ones inhibition by little substance. In the case of `CCCCCN(CCCCC)C(=O)[C@@H](CCC(=O)O)NC(=O)c1cc2ccccc2[nH]1` [Example 4, N-(2,-Indolylcarbonyl)-R-Glu-N^α,N^α -di-n-pentylamide], the IC50 in the assay on guinea pig acini was 22 nM; at Type-A CCK receptor, 20 nM.

Turning to `CCCCCN(CCCCC)C(=O)[C@H](CCC(=O)O)NC(=O)c1cc2ccccc2[nH]1` [Example 8, N-(2'-Indolylcarbonyl)-S-Glu-N^α,N^α -di-n-pentylamide], the IC50 with guinea pig acini is 590 nM; at Type-A CCK receptor (setting [1]), 200 nM.

For `CCCCCN(CCCCC)C(=O)[C@@H](CCC(=O)O)NC(=O)c1c[nH]c2ccccc12` [Example 12, N-(3'-Indolylcarbonyl)-R-Glu-N^α,N^α -di-n-penylamide], the figures for the IC50 in the assay on guinea pig acini, on Type-A CCK receptor (setting [1]) and on Type-B CCK receptor were 830 nM, 260 nM and 3200 nM, respectively.

With `CCCCCN(CCCCC)C(=O)[C@@H](CCC(=O)O)NC(=O)c1cnc2ccccc2c1` [Example 15, N-(3'-Quinolylcarbonyl)-R-Glu-N^α,N^α -di-n-pentylamide], the IC50 came out at 16 nM in the assay with guinea pig acini, 5.4 nM on Type-A CCK receptor and 3500 nM at Type-B CCK receptor.

Turning to `CCCCCN(CCCCC)C(=O)[C@@H](CC(=O)O)NC(=O)c1cc2ccccc2[nH]1` [Example 19, N-(2'-Indolylcarbonyl)-R-Asp-N^α,N^α -di-n-pentylamide], the figures for the IC50 in the assay with guinea pig acini, at Type-A CCK receptor and at Type-B CCK receptor were 55 nM, 27 nM and 2600 nM, respectively.

In the case of `CCCCCN(CCCCC)C(=O)[C@@H](CCC(=O)OC)NC(=O)c1cc2ccccc2[nH]1` [Example 23, N-(2'-Indolylcarbonyl)-(γ-methyl ester)-R-Glu-di-n-pentylamide], the IC50 in the assay on guinea pig acini worked out at 1300 nM; on Type-A CCK receptor, 98 nM; on Type-B CCK receptor, 3600 nM.

With `O=C(O)CC[C@@H](NC(=O)c1cc2ccccc2[nH]1)C(=O)N(Cc1ccccc1)Cc1ccccc1` [Example 29, N-(2'-Indolylcarbonyl)-R-Glu-N^α,N^α -dibenzylamide], the IC50 with guinea pig acini stood at 130 nM; at Type-A CCK receptor it was 30 nM; at Type-B CCK receptor, 5100 nM.

Consider `CCCCCN(CCCCC)C(=O)[C@@H](CCC(=O)O)NC(=O)c1ccc2ncccc2c1` [Example 34, N-(6'-Quinolylcarbonyl)-R-Glu-N^α,N^α -d-n-pentylamide], for which the IC50 in the assay on guinea pig acini is 53 nM; at Type-A CCK receptor it was 30 nM; on Type-B CCK receptor it was approximately 10000 nM.

As for `O=C(O)CC[C@@H](NC(=O)c1cc2ccccc2[nH]1)C(=O)N(c1ccccc1)c1ccccc1` [Example 74, N-(2'-Indolylcarbonyl)-R-Glu-N^α,N^α -diphenylamide], the IC50 with guinea pig acini came to 1200 nM; at Type-A CCK receptor, 210 nM; at Type-B CCK receptor, 2000 nM.

Turning to `CCOC(=O)CN(CC(=O)OCC)C(=O)[C@@H](CCC(=O)O)NC(=O)c1cc(O)c2cccc(O)c2n1` [Example 109, N-(4',8'-Dihydroxyquinolyl-2-carbonyl)-R-Glutamyl-bis(carboethoxymethyl)amide], the IC50 worked out at 56 nM on Type-A CCK receptor (setting [1]) and 620 nM at Type-B CCK receptor (guinea pig cerebral cortical membranes, 30° C., 150 min, IC50 from Hill analysis).

Take `CCCCCN(CCCCC)C(=O)[C@@H](CCC(=O)O)NC(=O)c1cnc2ccccc2c1` [Example 118, N-(3'-Quinolylcarbonyl)-R-Glu-N^α,N^α -di-n-pentylamideDicyclohexylamine salt]: the “Gastric emptying observed (mice out of three; more than 1 indicates antagonism of CCK8)” value in the assay with CCK8 is recorded as “three out of three”.
